From paper PMC7069920, “Schizandrin A exhibits potent anticancer activity in colorectal cancer cells by inhibiting heat shock factor 1” (Bioscience Reports, 2020)

Legend:
HSF1 [1] = conditions: read-out: IC50, heat shock-induced HSF1 reporter activity; cited from earlier work
RKO cells [2] = assay: MTS cell viability assay, RKO; format: cell-based; conditions: Homo sapiens, 72 h, read-out: IC50, antiproliferative effect
Description: (§1) The Cell Titer 96 Aqueous Non-Radioactive Cell Proliferation Assay Kit (Promega, U.S.A.) was utilized to measure cell viability. RKO, DLD-1 cells (5 × 10^3 cells/well) and SW620, SW480 (6 × 10^3 cells/well) were seeded in 96-well plates overnight. This was followed by the removal of the culture medium and the exposure of all cells to different concentrations of chemical treatment for 72 h. The absorbance value of each well was determined by a microplate reader at 490 nm. Each experiment was repeated for three times.

DLD-1 cells = assay: MTS cell viability assay, DLD-1; format: cell-based; conditions: Homo sapiens, 72 h, read-out: IC50, antiproliferative effect
Description: as §1

SW620 cells = assay: MTS cell viability assay, SW620; format: cell-based; conditions: Homo sapiens, SW-620, 72 h, read-out: IC50 (50% inhibition), antiproliferative effect
Description: as §1

SW480 cells = assay: MTS cell viability assay, SW480; format: cell-based; conditions: Homo sapiens, 72 h, read-out: IC50 (50% inhibition), antiproliferative effect
Description: as §1

CCD 841 CoN cells = assay: MTS cell viability assay, normal colon epithelial cells; format: cell-based, human; conditions: 72 h
RKO cells [3] = assay: Cell cycle analysis by flow cytometry (PI); format: cell-based, human
Description: Cells (3 × 10^5 cells/well) were seeded in six-well plates and allowed to adhere overnight. The next day, the cells were treated with different compounds as indicated for 24 h. The cells were then trypsinized, washed, and fixed in 75% ice-cold ethanol at 4°C overnight. After centrifugation, the pellets were washed with cold PBS, suspended in 500 μl PBS with […] PI and incubated in the dark at 4°C for 30 min. Then cell suspension was tested using an FACS Calibur instrument (Becton Dickinson FACSCalibor, BD Biosciences, Franklin Lakes, NJ, U.S.A.).

HSF1 [4] = assay: HSE luciferase reporter assay (heat shock-induced HSF1 reporter activity); format: cell-based; conditions: Homo sapiens, RKO cells, 30 min pretreatment, 43°C 1 h, 5 h recovery
Description: The double-strand DNA containing four copies of the palindromic HSE (5′-[…]-3′) was synthesized and inserted into the multiple cloning site (MCS) of pGL3-basic vector (Promega, U.S.A.), which was named as p(HSE)4-basic vector. Then, the Dual-Glo® Luciferase Assay System (Promega, U.S.A.) was used to measure the activity of the reporter. Briefly, RKO cells (3 × 10^5 cells/well) were seeded in six-well plates. After being cultured overnight, cells were co-transfected with 2 μg of p(HSE)4-basic vector and 0.2 μg of pRL-TK using X-treme GENE HP DNA Transfection Reagent (Roche, U.S.A.) according to the manufacturer’s protocol. The Renilla luciferase gene was transfected as an internal control vector. Twenty-four hours after transfection, cells were trypsinized and seeded in 12-well plates at a density of 8 × 10^4 cells per well. The next day, cells were incubated with Sch A at different concentrations for 30 min, exposed to heat shock at 43°C for 60 min, and then incubated further at 37°C for 5 h. Firefly and Renilla luciferase activities were measured using a dual-light reporter gene assay kit (Promega) with a Synergy 2 BioTek plate reader (BioTek, U.S.A.).

RKO and SW620 cells = assay: Clonogenic (colony-forming) assay; format: cell-based, human; conditions: 75 and 150 μM for 24 h, colonies stained on 14th day, vs negative control
Description: RKO cells were seeded at a density of 800 cells per well in six-well cell culture plate overnight. Then Sch A was mixed into the culture medium and added at different concentrations. After 24 h, the culture medium was replaced with fresh culture medium, and was allowed to grow for an additional 14 ays. Following this, the medium was removed from the colonies, which were then washed twice with PBS, fixed with methanol for 15 min, stained with Crystal Violet for 15 min, and finally washed with running water for 5 min. Colonies containing more than 50 cells were counted, and then photographed for visualization.
Furthermore, colony-forming assays were performed to assess the long-term inhibitory effects of Sch A treatment. After 24 h of treatment with Sch A (75 and 150 μM), the cell culture was replaced with fresh medium every 3 days. On the 14th day, cell colonies were stained with 0.1% Crystal Violet and photographed.

[5] = test system: HSP70, HSP27 and HSP90 mRNA; assay: qRT-PCR of HSF1 target genes after heat shock; format: cell-based, human; conditions: RKO, 50-150 μM, heat shock 43°C 1 h, recovery 37°C 0.5 h
Description: Total RNA was extracted with TRIzol reagent (Invitrogen) following the manufacturer’s protocol. RNA concentrations were quantified by NanoDrop 2000 (Nanodrop, U.S.A.). Two micrograms RNA was reverse transcribed with High-Capacity cDNA Reverse Transcription Kit (Applied Biosystems, U.S.A.). Quantitative real-time PCR was performed to determine the mRNA expression level using SYBR Green Master Mix Kit and Light Cycler 480 II system (Roche, Shanghai, China).
Relative quantities of HSP70, HSP90 and HSP27 mRNA were normalized against ACTB mRNA.

Hsp70 and Hsp27 = assay: Western blot of HSF1 downstream proteins; format: cell-based, human; conditions: RKO, 50-150 μM, heat shock or 24 h at normal temperature
Description: (§2) After 24 h of treatment as indicated, the cells were washed once with PBS. The total proteins were extracted with RIPA buffer supplemented with protease inhibitors (Roche, U.S.A.) and quantified with BSA standard methodology. Equal amounts of proteins were separated by SDS/PAGE and transferred to a PVDF membrane. After blocking with 5% non-fat dry milk in TBST for 1.5 h, the membrane was incubated with a specific primary antibody diluted 1:1000 overnight at 4°C, and the secondary antibody was then conjugated with HRP (1:5000, Santa Cruz, CA) at room temperature for 2 h. The immunoreactive bands were visualized with enhanced chemiluminescence liquid (Millipore, Billerica, MA, U.S.A.) in Amersham Imager 600 system (GE Healthcare Life Sciences, Shanghai, China).

[6] = test system: p-Rb (S807/811), Cyclin D1, Cdk4, Cdk6; assay: Western blot of cell cycle-related proteins; format: cell-based, human; conditions: RKO, 50-150 μM, 24 h
Description: as §2

[7] = test system: Cleaved-PARP, Cleaved-caspase-3, Bcl-2; assay: Western blot of apoptosis-related proteins; format: cell-based, human; conditions: RKO, 50-150 μM, 24 h
Description: Flow cytometer analysis and Western blotting were used to detect cell apoptosis. For flow cytometer analysis of apoptosis, cells were treated […] for 24 h, washed twice with PBS, and re-suspended in 100 μl of 1 × binding buffer. Five microliters of FITC Annexin V and propidium iodide (PI) (556547, BD Biosciences, U.S.A.) were added to the cell suspension and then incubated at room temperature for 15 min. After dilution with 400 μl binding buffer, the samples were analyzed using an ACS Calibur flow cytometer (BD). For apoptosis using Western blotting, cleaved caspase 3, cleavage of PARP, Bcl-2, and BCl-xL were analyzed.
as §2

[8] = statement in discussion, no experiment and reference not given; cited from earlier work
[9] = target: T1, human recombinant HSF1 full-length protein (Homo sapiens, UniProt Q00613); assay: SPR direct binding to HSF1
T1 sequence (Q00613 1-529): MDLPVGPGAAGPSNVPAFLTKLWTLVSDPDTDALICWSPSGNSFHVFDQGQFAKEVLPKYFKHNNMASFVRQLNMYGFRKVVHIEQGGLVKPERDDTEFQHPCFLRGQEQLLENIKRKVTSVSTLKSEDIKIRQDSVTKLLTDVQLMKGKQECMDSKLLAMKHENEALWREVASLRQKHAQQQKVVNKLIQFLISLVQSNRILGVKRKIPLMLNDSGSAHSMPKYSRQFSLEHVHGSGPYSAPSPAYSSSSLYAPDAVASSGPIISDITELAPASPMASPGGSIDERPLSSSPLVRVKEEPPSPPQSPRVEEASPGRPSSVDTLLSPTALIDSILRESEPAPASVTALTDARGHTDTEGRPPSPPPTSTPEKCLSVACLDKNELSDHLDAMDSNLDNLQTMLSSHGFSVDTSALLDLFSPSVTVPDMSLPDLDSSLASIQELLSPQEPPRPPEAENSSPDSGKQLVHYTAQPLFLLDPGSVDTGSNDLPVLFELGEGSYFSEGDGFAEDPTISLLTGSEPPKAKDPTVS
Description: SPR experiments were performed on a ProteOn XPR36 Protein Interaction Array system (Bio-Rad Laboratories, Hercules, CA, U.S.A.). Briefly, HSF1 solution in PBST (5 mM, pH 7.4) at a concentration of 1 mg/ml was diluted to 30 μg/ml with sodium acetate buffer (pH 4.5). The chip was activated with EDC/NHS (10 μl/min for 600 s). Then, HSF1 was loaded (5 μl/min for 400 s) and immobilized covalently. Approximately 7000 RU of HSF1 was immobilized on the chip. Any excess of unbound HSF1 was removed by flowing PBS solution (5 mM, pH 7.4, with 5%, w/v, DMSO). […] Five concentrations were injected simultaneously at a flow rate of 30 μM/min for 120 s of association phase, followed with 120 s of dissociation phase at 25°C. The final graph was obtained by subtracting blank sensorgrams from the duplex or quadruplex sensorgrams. Data were analyzed using the ProteOn manager software.

In the case of `CNc1ccc([N+](=O)[O-])c(Nc2ccc3[nH]ncc3c2)n1` [KRIBB11], the IC50 (HSF1 [1]) is given as 1.2 µM.
In the case of `COc1cc2c(c(OC)c1OC)-c1c(cc(OC)c(OC)c1OC)C[C@H](C)[C@H](C)C2` [Sch A, Schizandrin A], the IC50 (RKO cells [2]) is reported as 68.7 µM, the IC50 (DLD-1 cells) is reported as over 150 µM and the IC50 (SW620 cells) is reported as 85.7 µM. The IC50 (SW480 cells) was 87.6 µM, the “effect on cell viability” value (CCD 841 CoN cells; CCD 841 CoN cells, up to 150 μM) was “little effect on the cell viability” and the IC50 (CCD 841 CoN cells; Homo sapiens, CCD 841 CoN normal colon epithelial cells, MTS, read-out: IC50, antiproliferative effect) was over 150 µM. For the same molecule, the “Dip G2” value (RKO cells [3]; 50 μM, 24 h (DMSO 15.92 %)) was 14.49%, the “Dip S” value (RKO cells [3]; 50 μM, 24 h (DMSO 38.03 %)) was 30.80% and the “Dip G1” value (RKO cells [3]; 50 μM, 24 h (DMSO 46.05 %)) was 54.71%. The “Dip G1” value (RKO cells [3]; 75 μM, 24 h) was 62.16%, the “Dip G2” value (RKO cells [3]; 75 μM, 24 h) was 10.56% and the “Dip S” value (RKO cells [3]; 75 μM, 24 h) was 27.28%. For the same molecule, the “Dip G1” value (RKO cells [3]; 100 μM, 24 h) was 72.26%, the “Dip G2” value (RKO cells [3]; 100 μM, 24 h) was 7.82% and the “Dip S” value (RKO cells [3]; 100 μM, 24 h) was 19.93%. For the same molecule, the “Dip G1” value (RKO cells [3]; 150 μM, 24 h) was 82.94%, the “Dip G2” value (RKO cells [3]; 150 μM, 24 h) was 8.53% and the “Dip S” value (RKO cells [3]; 150 μM, 24 h) was 8.53%. For the same molecule, the inhibition at 100 µM (HSF1 [4]) was about 50%, the “effect on clone formation” value (RKO and SW620 cells) was “stronger inhibitory effect on cancer cell growth in a dose-dependent manner” and the “transcription of HSF1 target genes (HSP70, HSP27, HSP90 mRNA)” value [5] was “effectively blocked the transcription of HSF1 target genes”. For the same molecule, the “HSF1-regulated downstream signaling induced by heat shock and basal expression of Hsp 70 and Hsp 27” value (Hsp70 and Hsp27) was “effectively down-regulated”, the “expression of cell cycle-related proteins (p-Rb, Cyclin D1, Cdk4, Cdk6)” value [6] was “reducing the expression of cell cycle-related proteins” and the “expression of anti-apoptotic protein Bcl-2” value [7] was “decreased”. For the same molecule, the “expression of pro-apoptotic molecules (Cleaved-PARP and Cleaved-caspase-3)” value [7] was “significantly elevated”, the water solubility [8] was “low water solubility” and the Kd [9] was 106 µM. For the same molecule, the kon ([9]; pH 7.4, read-out: Ka (association constant, SPR)) was 26900 M⁻¹ s⁻¹.
